Assay results as given in patent US6245801A, “Branched alkyl pyrrolidine-3-carboxylic acids” (Warner-Lambert Company, priority 2000, dated 2001).

Key:
[1] = target: T1, α2δ subunit of a calcium channel (Sus scrofa, UniProt A0A287BIN3); test: [3H]gabapentin (GAP) radioligand binding assay, α2δ subunit; design: species or system porcine (brain tissue)
T1 construct: α2δ subunit derived from porcine brain tissue; from tissue; host or cells: porcine brain tissue

[2] = test system: DBA/2 mice; test: DBA2 mouse model of anticonvulsant efficacy (sound-induced seizures); type: in vivo, mouse (male DBA/2); settings: time not printed
Protocol: DBA2 Mouse Model of Anticonvulsant Efficacy
All procedures were carried out in compliance with the NIH Guide for the Care and Use of Laboratory Animals under a protocol approved by the Parke-Davis Animal Use Committee. Male DBA/2 mice, 3 to 4 weeks old were obtained from Jackson Laboratories Bar Harbour, Me. Immediately before anticonvulsant testing, mice were placed upon a wire mesh, 4 inches square, suspended from a steel rod. The square was slowly inverted through 180° and mice observed for 30 seconds. Any mouse falling from the wire mesh was scored as ataxic (Coughenour L. L., McLean J. R., Parker R. B., "A new device for the rapid measurement of impaired motor function in mice," Pharm. Biochem. Behav., 1977;6(3):351-3). Mice were placed into an enclosed acrylic plastic chamber (21 cm height, approximately 30 cm diameter) with a high-frequency speaker (4 cm diameter) in the center of the top lid. An audio signal generator (Protek model B-810) was used to produce a continuous sinusoidal tone that was swept linearly in frequency between 8 kHz and 16 kHz once each 10 msec. The average sound pressure level (SPL) during stimulation was approximately 100 dB at the floor of the chamber. Mice were placed within the chamber and allowed to acclimatize for one minute. DBA/2 mice in the vehicle-treated group responded to the sound stimulus (applied until tonic extension occurred, or for a maximum of 60 sec) with a characteristic seizure sequence consisting of wild running followed by clonic seizures, and later by tonic extension, and finally by respiratory arrest and death in 80% or more of the mice. In vehicle-treated mice, the entire sequence of seizures to respiratory arrest lasts approximately 15 to 20 seconds. The incidence of all the seizure phases in the drug-treated and vehicle-treated mice was recorded, and the occurrence of tonic seizures were used for calculating anticonvulsant ED50 values by probit analysis (Litchfield J. T., Wilcoxon F. "A simplified method for evaluating dose-effect experiments," J. Pharmacol., 1949;96:99-113). Mice were used only once for testing at each dose point. Groups of DBA/2 mice (n=5-10 per dose) were tested for sound-induced seizure responses 2 hours (previously determined time of peak effect) after given drug orally. All drugs in the present study were dissolved in distilled water and given by oral gavage in a volume of 10 mL/kg of body weight. Compounds that are insoluble will be suspended in 1% carboxymethocellulose. Doses are expressed as weight of the active drug moiety.

[3] = test system: Sys L; test: Sys L; settings: Table I
[4] = test system: carrageenin-induced hyperalgesia; test: CITH / carrageenin-induced hyperalgesia; type: in vivo, rat (male Sprague-Dawley); settings: for CITH % MPE 1 h / CITH % MPE 2 h: Table I; for percent of maximum possible effect (MPE): 30 mg/kg orally
Protocol: Carrageenin-Induced Hyperalgesia
Nociceptive pressure thresholds were measured in the rat paw pressure test using an analgesymeter (Randall-Selitto method: Randall L. O. and Selitto J. J., "A method for measurement of analgesic activity on inflamed tissue," Arch. Int. Pharmacodyn., 1957;4:409-419). Male Sprague-Dawley rats (70-90 g) were trained on this apparatus before the test day. Pressure was gradually applied to the hind paw of each rat and nociceptive thresholds were determined as the pressure (g) required to elicit paw withdrawal. A cutoff point of 250 g was used to prevent any tissue damage to the paw. On the test day, two to three baseline measurements were taken before animals were administered 100 μL of 2% carrageenin by intraplantar injection into the right hind paw. […] Animals were dosed with either gabapentin ([…].), morphine (3 mg/kg, s.c.) or saline at 3.5 hours after carageenin and nociceptive thresholds were examined at 4, 4.5, and 5 hours postcarrageenin.
(R)-2-Aza-spiro[4.5]decane-4-carboxylic acid hydrochloride was tested in the above carrageenan-induced hyperalgesia model. The compound was dosed orally at 30 mg/kg, and 1 hour postdose gave a percent of maximum possible effect (MPE) of 53%. At 2 hours postdose, it gave only 4.6% of MPE.

[5] = test system: Vogel; test: Vogel; type: in vivo; settings: relative to C1-1008
[6] = test system: NA Release; test: NA Release, % inhibition; settings: @ 100 μM

T1 sequence (A0A287BIN3 entry or part of it): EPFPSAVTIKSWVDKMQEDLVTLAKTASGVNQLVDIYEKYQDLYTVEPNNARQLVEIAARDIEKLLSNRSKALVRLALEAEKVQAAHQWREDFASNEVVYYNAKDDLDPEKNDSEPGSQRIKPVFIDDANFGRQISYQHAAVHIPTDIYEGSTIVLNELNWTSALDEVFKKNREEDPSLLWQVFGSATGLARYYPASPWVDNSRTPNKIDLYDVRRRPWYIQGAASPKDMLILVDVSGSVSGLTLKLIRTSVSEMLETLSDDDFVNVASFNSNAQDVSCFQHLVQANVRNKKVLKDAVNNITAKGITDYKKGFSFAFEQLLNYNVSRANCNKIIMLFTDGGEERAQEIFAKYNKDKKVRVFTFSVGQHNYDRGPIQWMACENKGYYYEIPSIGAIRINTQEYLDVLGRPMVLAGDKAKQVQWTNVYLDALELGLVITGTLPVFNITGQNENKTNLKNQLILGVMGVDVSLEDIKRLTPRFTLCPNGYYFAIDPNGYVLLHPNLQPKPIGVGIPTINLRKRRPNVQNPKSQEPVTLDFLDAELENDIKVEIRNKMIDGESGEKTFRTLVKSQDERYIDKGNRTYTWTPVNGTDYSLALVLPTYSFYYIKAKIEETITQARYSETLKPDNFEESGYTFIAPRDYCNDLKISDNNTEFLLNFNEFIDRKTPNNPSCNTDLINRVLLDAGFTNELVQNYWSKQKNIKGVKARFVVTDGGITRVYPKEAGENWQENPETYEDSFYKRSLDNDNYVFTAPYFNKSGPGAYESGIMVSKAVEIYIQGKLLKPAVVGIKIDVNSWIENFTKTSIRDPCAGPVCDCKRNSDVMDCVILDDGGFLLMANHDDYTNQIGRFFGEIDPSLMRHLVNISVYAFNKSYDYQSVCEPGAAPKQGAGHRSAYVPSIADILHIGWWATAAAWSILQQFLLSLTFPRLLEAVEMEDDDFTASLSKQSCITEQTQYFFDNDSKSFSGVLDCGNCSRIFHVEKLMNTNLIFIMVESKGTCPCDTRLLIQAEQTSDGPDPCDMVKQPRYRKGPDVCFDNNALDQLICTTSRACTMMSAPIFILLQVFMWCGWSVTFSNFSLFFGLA

SMILES	IC50 [1] [µM]	DBA 2 % Protect (time) ([2]; first value of the column) [%]	CITH % MPE 1 h [4] [% MPE]	CITH % MPE 2 h [4] [% MPE]	Vogel % of C1-1008 [5]	DBA 2 % Protect (time) ([2]; second value of the column) [%]	further results
CC1(C)CNCC1C(=O)O (racemic)	1.19	–	–	–	–	–	–
CCCC[C@H]1CNC[C@@H]1C(=O)O (relative stereo)	0.064	–	–	–	–	–	–
NCC1(CC(=O)O)CCCCC1 [reference compound]	–	100	48.9	19.9	63.7 % of C1-1008	–	IC50 [3]: 25 µM
CC(C)C[C@H](CN)CC(=O)O [reference compound]	0.087	100	52.5	50.1	100 % of C1-1008	100	IC50 [3]: 193 µM
CC(C)[C@H]1CNC[C@@H]1C(=O)O (relative stereo)	0.543	–	–	–	–	–	–
CC(C)C[C@H]1CNC[C@H]1C(=O)O (stereo in doubt) [Example 1, (cis)-4-Isobutyl-pyrrolidine-3-carboxylic acid]	0.135	–	–	–	–	–	–
CC(C)C[C@H]1CNC[C@@H]1C(=O)O (stereo in doubt)	–	0	3	-15	–	0	–
CCC[C@H]1CNC[C@@H]1C(=O)O (relative stereo)	0.03	–	–	–	–	–	–
C[C@H]1CNC[C@@H]1C(=O)O (relative stereo)	3.1	–	–	–	–	–	–
CC(C)C[C@@H]1CNC[C@H]1C(=O)O	–	–	–	–	-0.63 % of C1-1008	–	NA Release % Inhibition [6]: 8%
CC(C)C[C@H]1CNC[C@@H]1C(=O)O	–	20	–	–	0.63 % of C1-1008	40	NA Release % Inhibition [6]: 16%
CC(C)C[C@@H]1CNC[C@@H]1C(=O)O (stereo in doubt)	0.7	0	23	3.3	–	0	–
Cl.O=C(O)[C@H]1CNCC12CCCCC2 [(R)-2-Aza-spiro[4.5]decane-4-carboxylic acid hydrochloride]	0.12	20	53	4.6	–	20	IC50 [3]: > 10000 µM; percent of maximum possible effect (MPE) ([4]; 1 hour postdose): 53%; percent of maximum possible effect (MPE) ([4]; 2 hours postdose): 4.6%
